In brackets after ≈: the same amount, converted by molar mass. Activity calls are given as the source filed them. No cut-off for these calls is given here.
How the values were obtained:
Klebsiella pneumoniae = assay: Antibacterial activity against Klebsiella pneumoniae ATCC 700603 assessed as bacterial growth inhibition incubated for 18 hrs by broth microdilution method; assay type: functional
Bacillus subtilis = assay: Antibacterial activity against Bacillus subtilis ATCC 23857 assessed as bacterial growth inhibition incubated for 18 hrs by broth microdilution method; assay type: functional
[1] = Cytotoxicity against human HEK293T cells assessed as inhibition of cell growth incubated for 24 hrs by resazurin dye based analysis; assay type: toxicity, HEK-293T
Escherichia coli [2] = assay: Antibacterial activity against Escherichia coli ATCC 25922 assessed as fold increase in MIC in presence of KCl; assay type: functional
Escherichia coli [3] = assay: Antibacterial activity against Escherichia coli ATCC 25922 assessed as fold increase in MIC in presence of FeCl3; assay type: functional
Staphylococcus aureus [4] = assay: Antibacterial activity against Staphylococcus aureus ATCC 25923 assessed as fold increase in MIC in presence of NaCl; assay type: functional
Staphylococcus aureus [5] = assay: Antibacterial activity against Staphylococcus aureus ATCC 25923 assessed as fold increase in MIC in presence of KCl; assay type: functional
Staphylococcus aureus [6] = assay: Antibacterial activity against Staphylococcus aureus ATCC 25923 assessed as fold increase in MIC in presence of MgCl2; assay type: functional
Staphylococcus aureus [7] = assay: Antibacterial activity against Staphylococcus aureus ATCC 25923 assessed as fold increase in MIC in presence of ZnCl2; assay type: functional
Staphylococcus aureus [8] = assay: Antibacterial activity against Staphylococcus aureus ATCC 25923 assessed as fold increase in MIC in presence of FeCl3; assay type: functional
Escherichia coli [9] = assay: Antibacterial activity against Escherichia coli ATCC 25922 in presence of 10% mouse serum measured for 6 hrs; assay type: functional, organism-based
Staphylococcus aureus [10] = assay: Antibacterial activity against Staphylococcus aureus ATCC 25923 in presence of 10% mouse serum measured for 6 hrs; assay type: functional, organism-based
Escherichia coli [11] = assay: Antimicrobial activity against Escherichia coli ATCC 25922 assessed as reduction in survival bacterial growth in presence of trypsin measured after 6 hrs; assay type: functional, organism-based
Escherichia coli [12] = assay: Inhibition of biofilm formation in Escherichia coli ATCC 25922 assessed as inhibition of biofilm formation at 1/4 times MIC incubated for 24 hrs by crystal violet staining based analysis; assay type: functional, organism-based
Escherichia coli [13] = assay: Inhibition of biofilm formation in Escherichia coli ATCC 25922 assessed as inhibition of biofilm formation at 1/2 times MIC incubated for 24 hrs by crystal violet staining based analysis; assay type: functional, organism-based
Staphylococcus aureus [14] = assay: Inhibition of biofilm formation in Staphylococcus aureus ATCC 25923 assessed as inhibition of biofilm formation at 1/4 times MIC incubated for 24 hrs by crystal violet staining based analysis; assay type: functional, organism-based
Staphylococcus aureus [15] = assay: Inhibition of biofilm formation in Staphylococcus aureus ATCC 25923 assessed as inhibition of biofilm formation at 1 times MIC incubated for 24 hrs by crystal violet staining based analysis; assay type: functional, organism-based
Staphylococcus aureus [16] = assay: Inhibition of biofilm formation in Staphylococcus aureus ATCC 25923 assessed as inhibition of biofilm formation at 2 times MIC incubated for 24 hrs by crystal violet staining based analysis; assay type: functional, organism-based
Escherichia coli [17] = assay: Antibiofilm activity against Escherichia coli ATCC 25922 assessed as biofilm eradication at 1 times MIC incubated for 24 hrs; assay type: functional, organism-based
Escherichia coli [18] = assay: Antibiofilm activity against Escherichia coli ATCC 25922 assessed as biofilm eradication at 2 times MIC incubated for 24 hrs; assay type: functional, organism-based
Escherichia coli [19] = assay: Antibiofilm activity against Escherichia coli ATCC 25922 assessed as biofilm eradication at 4 times MIC incubated for 24 hrs; assay type: functional, organism-based
Staphylococcus aureus [20] = assay: Antibiofilm activity against Staphylococcus aureus ATCC 25923 assessed as biofilm eradication at 1 times MIC incubated for 24 hrs; assay type: functional, organism-based
Staphylococcus aureus [21] = assay: Antibiofilm activity against Staphylococcus aureus ATCC 25923 assessed as biofilm eradication at 2 times MIC incubated for 24 hrs; assay type: functional, organism-based
Staphylococcus aureus [22] = assay: Antibiofilm activity against Staphylococcus aureus ATCC 25923 assessed as biofilm eradication at 4 times MIC incubated for 24 hrs; assay type: functional, organism-based
Staphylococcus aureus [23] = assay: Antibiofilm activity against Staphylococcus aureus ATCC 25923 assessed as biofilm eradication at 8 times MIC incubated for 24 hrs; assay type: functional, organism-based
Escherichia coli [24] = assay: Induction of drug resistance against Escherichia coli ATCC 25922 assessed as fold increase in MIC measured upto 15 passages by sequential passaging method; assay type: functional
Staphylococcus aureus [25] = assay: Induction of drug resistance against Staphylococcus aureus ATCC 25923 measured upto 15 passages by sequential passaging method; assay type: functional
Escherichia coli [26] = assay: Bactericidal activity against Escherichia coli ATCC 25922 assessed as inhibition of bacterial growth incubated upto 360 mins by time-kill assay; assay type: functional, organism-based
Escherichia coli [27] = assay: Bactericidal activity against Escherichia coli ATCC 25922 assessed as inhibition of bacterial growth at 2 times MIC measured upto 360 mins by time-kill assay; assay type: functional, organism-based
Staphylococcus aureus [28] = assay: Bactericidal activity against Staphylococcus aureus ATCC 25923 assessed as inhibition of bacterial growth at 0.5 to 2 times MIC by time-kill assay; assay type: functional, organism-based; conditions: time <= 360.0 min, TDE = time-dependent effect
Staphylococcus aureus [29] = assay: Bactericidal activity against Staphylococcus aureus ATCC 25923 assessed as inhibition of bacterial growth incubated upto 360 mins by time-kill assay; assay type: functional, organism-based
Staphylococcus aureus [30] = assay: Bactericidal activity against Staphylococcus aureus ATCC 25923 assessed as inhibition of bacterial growth at 1 times MIC measured upto 360 mins by time-kill assay; assay type: functional, organism-based
Escherichia coli [31] = assay: Antimicrobial activity against Escherichia coli ATCC 25922 assessed as reduction in microbial growth measured for 18 hrs in presence of 512 microg/ml LPS; assay type: functional, organism-based
Cell membrane [32] = assay: Induction of outer membrane permeabilization in Escherichia coli ATCC 25922 assessed as increase in fluorescence intensity at 2 times MIC measured for 12 hrs by NPN uptake assay; assay type: subcellular
Cell membrane [33] = assay: Induction of outer membrane permeabilization in Escherichia coli ATCC 25922 assessed as increase in fluorescence intensity at 4 times MIC measured for 12 hrs by NPN uptake assay; assay type: subcellular
Cell membrane [34] = assay: Induction of inner membrane permeabilization in Escherichia coli ML-35 ATCC 43837 assessed as increase in fluorescence intensity at 1 to 4 times MIC incubated upto 150 mins by ONPG staining based analysis; assay type: subcellular
Cell membrane [35] = assay: Induction of cell membrane damage in Staphylococcus aureus ATCC 25923 at 2 times MIC after 0.5 to 2 hrs by propidium iodide staining based flow cytometer assay; assay type: subcellular; conditions: time 0.5-2 hrs
Cell membrane [36] = assay: Induction of cell membrane damage in Staphylococcus aureus ATCC 25923 at 2 times MIC measured at 30 mins by propidium iodide staining based flow cytometer assay; assay type: subcellular
Escherichia coli [37] = assay: Induction of membrane morphological changes in Escherichia coli ATCC 25922 at 4 times MIC measured at 0.5 to 2 hrs by SEM analysis; assay type: functional, organism-based; conditions: time 0.5-2 hrs
Staphylococcus aureus [38] = assay: Induction of membrane morphological changes in Staphylococcus aureus ATCC 25923 at 4 times MIC measured at 0.5 to 2 hrs by SEM analysis; assay type: functional, organism-based; conditions: time 0.5-2 hrs
Staphylococcus aureus [39] = assay: Induction of membrane morphological changes in Staphylococcus aureus ATCC 25923 assessed as appearance of broken bacterial cells at 4 times MIC measured at 0.5 to 2 hrs by SEM analysis; assay type: functional, organism-based; conditions: time 0.5-2 hrs
Staphylococcus aureus [40] = assay: Induction of membrane morphological changes in Staphylococcus aureus ATCC 25923 assessed as appearance of blistered bacterial cells at 4 times MIC measured at 0.5 to 2 hrs by SEM analysis; assay type: functional, organism-based; conditions: time 0.5-2 hrs

CCCCCCC(=O)N[C@@H](CCN)C(=O)N[C@H](C(=O)N[C@@H](CCN)C(=O)N[C@H](Cc1ccccc1)C(=O)N[C@@H](CC(C)C)C(=O)N[C@@H](CCN)C(=O)N[C@@H](C(=O)N[C@@H](CC(C)C)C(=O)N[C@@H](Cc1ccc(O)cc1)C(N)=O)C(C)C)[C@@H](C)CC
MIC (Klebsiella pneumoniae): 8 µg/mL (≈ 6.79 µM)
MIC (Bacillus subtilis): 2 µg/mL (≈ 1.7 µM)
IC50 at 24 h [1]: 32.5 µg/mL (≈ 27.6 µM)
fold change (FC) (Escherichia coli [2]): <=2
fold change (FC) (Escherichia coli [3]): <=2
fold change (FC) (Staphylococcus aureus [4]): <=2
fold change (FC) (Staphylococcus aureus [5]): <=2
fold change (FC) (Staphylococcus aureus [6]): <=2
fold change (FC) (Staphylococcus aureus [7]): <=2
fold change (FC) (Staphylococcus aureus [8]): <=2
Activity (Escherichia coli [9]): Active
Activity (Staphylococcus aureus [10]): Active
Activity (Escherichia coli [11]): Active
inhibition (Escherichia coli [12]): Active
inhibition (Escherichia coli [13]): Active
inhibition (Staphylococcus aureus [14]): Active
inhibition (Staphylococcus aureus [15]): inactive
inhibition (Staphylococcus aureus [16]): Active
Activity (Escherichia coli [17]): inactive
Activity (Escherichia coli [18]): Active
Activity (Escherichia coli [19]): Active
Activity (Staphylococcus aureus [20]): inactive
Activity (Staphylococcus aureus [21]): Active
Activity (Staphylococcus aureus [22]): Active
Activity (Staphylococcus aureus [23]): Active
fold change (FC) (Escherichia coli [24]): 64
Activity (Staphylococcus aureus [25]): Active
Activity (Escherichia coli [26]): Dose-Dependent Effect
Activity (Escherichia coli [27]): Active
Activity (Staphylococcus aureus [28]): Tde
Activity (Staphylococcus aureus [29]): Dose-Dependent Effect
Activity (Staphylococcus aureus [30]): inactive
Activity (Escherichia coli [31]): inactive
Activity (Cell membrane [32]): Active
Activity (Cell membrane [33]): Active
Activity (Cell membrane [34]): Active
Activity (Cell membrane [35]): Active
Activity (Cell membrane [36]): inactive
Activity (Escherichia coli [37]): Active
Activity (Staphylococcus aureus [38]): Active
Activity (Staphylococcus aureus [39]): Active
Activity (Staphylococcus aureus [40]): Active

CC[C@H](C)[C@@H]1NC(=O)[C@H](CCN)NC(=O)C[C@@H](C(C)C)OC(=O)[C@H]([C@@H](C)O)NC(=O)[C@H](CC(C)C)NC(=O)[C@@H](C(C)C)NC(=O)[C@H](CCN)NC(=O)[C@H](CC(C)C)NC(=O)[C@@H](Cc2ccccc2)NC(=O)[C@H](CCN)NC1=O
MIC (Klebsiella pneumoniae): 4 µg/mL (≈ 3.63 µM)
MIC (Bacillus subtilis): 4 µg/mL (≈ 3.63 µM)
IC50 at 24 h [1]: 29.2 µg/mL (≈ 26.5 µM)
fold change (FC) (Escherichia coli [2]): <=2
fold change (FC) (Escherichia coli [3]): <=2
fold change (FC) (Staphylococcus aureus [4]): <=2
fold change (FC) (Staphylococcus aureus [5]): <=2
fold change (FC) (Staphylococcus aureus [6]): <=2
fold change (FC) (Staphylococcus aureus [7]): <=2
fold change (FC) (Staphylococcus aureus [8]): <=2
Activity (Escherichia coli [9]): Active
Activity (Staphylococcus aureus [10]): Active
Activity (Escherichia coli [11]): Active
inhibition (Escherichia coli [12]): inactive
inhibition (Escherichia coli [13]): Active
inhibition (Staphylococcus aureus [14]): Active
inhibition (Staphylococcus aureus [15]): Active
inhibition (Staphylococcus aureus [16]): Active
Activity (Escherichia coli [17]): inactive
Activity (Escherichia coli [18]): Active
Activity (Escherichia coli [19]): Active
Activity (Staphylococcus aureus [20]): inactive
Activity (Staphylococcus aureus [21]): Active
Activity (Staphylococcus aureus [22]): Active
Activity (Staphylococcus aureus [23]): Active
fold change (FC) (Escherichia coli [24]): 64
Activity (Staphylococcus aureus [25]): Active
Activity (Escherichia coli [26]): Dose-Dependent Effect
Activity (Escherichia coli [27]): Active
Activity (Staphylococcus aureus [28]): Tde
Activity (Staphylococcus aureus [29]): Dose-Dependent Effect
Activity (Staphylococcus aureus [30]): inactive
Activity (Escherichia coli [31]): inactive
Activity (Cell membrane [32]): Active
Activity (Cell membrane [33]): Active
Activity (Cell membrane [34]): Active
Activity (Cell membrane [35]): Active
Activity (Cell membrane [36]): inactive
Activity (Escherichia coli [37]): Active
Activity (Staphylococcus aureus [38]): Active
Activity (Staphylococcus aureus [39]): Active
Activity (Staphylococcus aureus [40]): Active

— ChEMBL document CHEMBL5331122, “Structure-Activity Relationship Study of Antimicrobial Peptide PE2 Delivered Novel Linear Derivatives with Potential of Eradicating Biofilms and Low Incidence of Drug Resistance” (J Med Chem, 2023)
